Results as given in patent publication US4288609A, “Quaternary ammonium derivatives of adamantane with antimicrobic activity” (priority 1976, dated 1981).
Read-outs that look alike come from different tables or passages of the source.

Columns and labels:
[1] = system: Escherichia Coli SKF 12140; test: Speed of sterilising action, Escherichia Coli (Table 3); assay type: cell-based
Description: (§1) The strains, inoculants, culture broths and experimental methods are as already seen for calculating the M.I.C. in vitro. The antimicrobic substances were tested at concentrations of 0.1, 0.25, 0.5 and 1 g/l, the contact times taken into consideration are 0, 1, 2.5, 5, 7.5, 10, 15, 30 and 60 minutes.
(§2) The samples which at the 7th day of incubation still had no growth of micro-organisms which could be observed macroscopically and/or microscopically were considered sterile.
(§3) The results are recorded in Table 3 in terms of sterilization time expressed in minutes.

[2] = system: Trych. Mentagr. 1st.Pastuer; test: MIC mildews, Trichophyton mentagrophytes (Table 2); assay type: cell-based; details: Trichophyton mentagrophytes, Sabourand broth, read-out: MIC
[3] = system: Trichophyton Mentagrophytes; test: Topical activity upon dermatophytis from Trichophyton in cavies (Table 6); assay type: in vivo, Albino cavies; details: in vivo
Description: Albino cavies of 250-300 g are infected, after depilation and scarification of a circular area of dorsal skin upon which there are supplied 0.1 ml of a suspension of microconidia of Trichophyton Mentagrophytes from the Pasteur Institute collection, obtained from a culture of 15 days upon Saboureaud agar. 24 Hours after infection topical treatment is started and is continued for two weeks (once per day).
The compounds to be tested are dissolved or suspended at the desired concentration, in a water-alcohol mixture (75/25 v/v) containing 0.75% by weight of carboxymethyl-cellulose (CMC). […] Each single application is carried out using 0.25 ml of the suspension or solution obtained as described above.
Fourteen days after infection the lesions are assessed. Assessment is carried out by attributing index numbers depending upon the seriousness of the lesions formed, as follows:
The substances under examination were tested at concentrations of 5 and 2.5% by weight.

[4] = system: Candida Albicans SKF 2270; test: Speed of sterilising action, Candida Albicans (Table 3); assay type: cell-based
Description: as §1, §2, §3

[5] = system: Candida albicans; test: Activity upon vaginal candidiasis in mice (Table 7); assay type: in vivo, female Swiss mice (Charles River CD1); details: for no. of animals surviving: 8 animals
Description: The treatment groups consist each of 8 female Swiss mice (Charles River CD1) of average weight 20 g. The animals are infected with 0.025 ml of a 24 hour culture of Candida albicans, equal to 10^6 cellules.
0.025 ml of a suspension in lanoline of the compound to be tested, at the desired concentration, are applied locally twice a day for a week, the first treatment being started five hours after infection.
The control group is treated with the lanoline alone in the same way. On the eighth day vaginal washings are carried out with 0.025 ml of sterile physiological solution, and the liquid is sown in Petri dishes containing Bacto Biggy Agon Difco as a selective growing medium for the Candida.
After 48 hours of incubation of the dishes at 30° C. a count is taken of the colonies which have grown. Assessment of the activity is quantized using the indices listed here below:
The results are expressed as percentages of the average index of seriousness of the infection A.D.I. (Average Degree of Infection) in the animals treated with respect to the animals in the control group.
The substances under examination were tested at concentrations of 5 and 3% by weight.

[6] = system: Pseudom.Aer. ATCC 1014; test: M.I.C. in vitro, gram- Pseudom. Aer. (Table 1); assay type: cell-based, Pseudomonas Aeruginosa; details: Pseudomonas aeruginosa, read-out: M.I.C.
Outline: (§4)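 Inhibition of growth in broth cultures carrying a predetermined number of organisms, after addition of calculated compound quantities; incubation for 24 or 48 hours at 30° or 37° C. by organism; result expressed as M.I.C. in γ/ml.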

[7] = system: Klens. Pneum. ISM; test: M.I.C. in vitro, gram- Klens. Pneum. (Table 1); assay type: cell-based; details: read-out: M.I.C.
Outline: as §4

[8] = system: all the micro-organisms tested; test: Speed of sterilising action, all micro-organisms; assay type: cell-based; details: even with a very low concentration
Description: as §1, §2, §3

[9] = system: Staph.Aureus Tour; test: M.I.C. in vitro, gram+ Staph. Aureus (Table 1); assay type: cell-based, Staphylococcus Aureus; details: Staphylococcus aureus, read-out: M.I.C.
Outline: as §4

[10] = system: Trichophyton Mentagrophytes Ist. Pasteur; test: Speed of sterilising action, Trichophyton Mentagrophytes (Table 3); assay type: cell-based
Description: as §1, §2, §3

[11] = system: Diplococcus Pneum. ISM; test: M.I.C. in vitro, gram+ Diplococcus Pneum. (Table 1); assay type: cell-based; details: read-out: M.I.C.
Outline: as §4

[12] = system: Trich. Vaginalis ISM 66/22; test: MIC protozoa, Trichomonas vaginalis (Table 2); assay type: cell-based; details: Trichomonas vaginalis, +10% serum (head); Kupferberg Trichomonas broth with 5% of horse serum; read-out: MIC
Outline: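 Test substance was added at set concentrations to Kupferberg Trichomonas broth with 5% horse serum, inoculated with T. vaginalis or T. foetus at 3.5% of medium volume. Growth was assessed after 24 or 48 h incubation at 30° or 37 °C. MIC is the minimum concentration inhibiting growth.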

[13] = system: gram+ and gram- bacterial strains; test: Activity in vitro on gram+ and gram- bacteria, overall; assay type: cell-based; details: gram positive and gram negative strains, low concentrations
Description: The method for evaluating the activity in vitro against bacteria, fungi and protozoa consists in introducing calculated quantities of the substance, the activity of which it is desired to test, into culture media already inoculated with a predetermined number of test germs.
After 24 or 48 hours of incubation at 30° or 37° C., according to the micro-organism being tested, it is possible to evaluate the growth of the same in the culture broth; in this manner the minimum concentration (M.I.C.) which inhibits the growth of the micro-organisms in vitro is determined.
In table 1 there are recorded the M.I.C. values in γ/ml of the products subject of the present invention, against certain gram+ and gram- bacterial strains, some of which are pathogenic towards human beings.

[14] = system: Candida Albic. SKF 2270; test: MIC yeasts, Candida albicans (Table 2); assay type: cell-based; details: for MIC: Candida, Sabourand broth, read-out: MIC
Outline: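 Candida inoculum (10^3 cells/ml, from 24 h cultures at 30° C) in Sabouraud broth containing graded compound concentrations.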

[15] = Acute oral toxicity in mice (Table 4); details: mouse, in vivo, po, LD50, oral, mice, 14 days
Description: The substances were administered orally to groups of 10 female mice CF1 of average weight of about 20 grams, in aqueous solution and in such way that the total volume administered would be in each case 1 ml/100 g of weight.

Q: Which sterilization time ([1]; 0.1 g/l) does the source give for `CCCCCCCCCCCC[N+](C)(C)CCOC(=O)C12CC3CC(CC(C3)C1)C2` [Example 4] here?
A: Its sterilization time is 60 min.

Q: And the sterilization time ([1]; 0.25 g/l)?
A: Its sterilization time is 60 min.

Q: And the sterilization time ([1]; 0.5 g/l)?
A: Its sterilization time is 30 min.

Q: And the sterilization time ([1]; 1 g/l)?
A: The sterilization time was 10 min.

Q: What about the MIC ([2]; +10% serum) of the same compound?
A: The MIC was 5 µg/mL.

Q: And the MIC ([2]; without serum)?
A: The MIC was 0.1 µg/mL.

Q: And the “in vivo activity against Trichophyton Mentagrophytes (in words)” value [3]?
A: Its value is “excellent "in vivo" activity against Trichophyton Mentagrophytes”.

Q: And the sterilization time ([4]; 0.1 g/l)?
A: The sterilization time was 30 min.

Q: And the sterilization time ([4]; 0.25 g/l)?
A: Its sterilization time is 10 min.

Q: What about the sterilization time ([4]; 0.5 g/l) of the same compound?
A: The sterilization time was 5 min.

Q: And the sterilization time ([4]; 1 g/l)?
A: Its sterilization time is 1 min.

Q: And the “% of healing (100-A.D.I. %)” value ([5]; 3% by weight)?
A: The value was 57.98%.

Q: What about the “A.D.I. (compared with controls)” value ([5]; 3% by weight) of the same compound?
A: The value was 42.02%.

Q: And the “average proliferation index (A.D.I)” value ([5]; 3% by weight)?
A: Its value is 1.00.

Q: What about the “no. of animals surviving” value ([5]; 3% by weight) of the same compound?
A: The value was 8.

Q: And the “proliferation index (individual)” value ([5]; 3% by weight, eighth day)?
A: The value was 2-0-1-1-1-1--0-2.

Q: And the “% of healing (100-A.D.I. %)” value ([5]; 5% by weight)?
A: The value was 84.03%.

Q: What about the “A.D.I. (compared with controls)” value ([5]; 5% by weight) of the same compound?
A: Its value is 15.97%.

Q: What about the “average proliferation index (A.D.I)” value ([5]; 5% by weight) of the same compound?
A: The value was 0.38.

Q: And the “no. of animals surviving” value ([5]; 5% by weight)?
A: Its value is 8.

Q: What about the “tolerance by vaginal mucous membrane” value ([5]; mice, local) of the same compound?
A: Its value is “perfectly tolerated by very delicate tissues”.

Q: And the “topical in vivo activity against Candida albicans (in words)” value ([5]; mouse, in vivo)?
A: Its value is “excellent topical activity "in vivo" even against Candida albicans”.

Q: What about the MIC ([6]; ATCC1014, +10% serum) of the same compound?
A: Its MIC is 100 µg/mL.

Q: And the MIC ([6]; ATCC1014, without serum)?
A: The MIC was 10 µg/mL.

Q: And the MIC ([7]; +10% serum)?
A: The MIC was 100 µg/mL.

Q: What about the MIC ([7]; without serum) of the same compound?
A: Its MIC is 2 µg/mL.

Q: What about the “sterilising action (in words)” value [8] of the same compound?
A: Its value is “swift sterilising action on all the micro-organisms tested”.

Q: What about the MIC ([9]; +10% serum) of the same compound?
A: The MIC was 5 µg/mL.

Q: What about the MIC ([9]; without serum) of the same compound?
A: Its MIC is < 0.1 µg/mL.

Q: And the sterilization time ([10]; 0.1 g/l)?
A: Its sterilization time is 60 min.

Q: What about the sterilization time ([10]; 0.25 g/l) of the same compound?
A: Its sterilization time is 60 min.

Q: And the sterilization time ([10]; 0.5 g/l)?
A: The sterilization time was 15 min.

Q: And the sterilization time ([10]; 1 g/l)?
A: The sterilization time was 5 min.

Q: What about the MIC ([11]; +10% serum) of the same compound?
A: Its MIC is 5 µg/mL.

Q: What about the MIC ([11]; without serum) of the same compound?
A: Its MIC is 0.5 µg/mL.

Q: And the MIC [12]?
A: The MIC was 5 µg/mL.

Q: And the “antibacterial activity (in words)” value [13]?
A: Its value is “powerful antibacterial activity at low concentrations”.

Q: What about the MIC ([14]; +10% serum) of the same compound?
A: Its MIC is 20 µg/mL.

Q: What about the MIC ([14]; without serum) of the same compound?
A: The MIC was 0.2 µg/mL.

Q: And the “activity on Candida albicans, times greater than that of cetyl pyridine chloride” value ([14]; in the absence of serum)?
A: Its value is “about 25 times”.

Q: And the “activity on Candida albicans, times higher than that of cetyl pyridine chloride” value ([14]; in the presence of 10% of horse serum)?
A: Its value is 5-10 times.

Q: What about the LD50 at 336 h [15] of the same compound?
A: The LD50 at 336 h was 820 mg/kg.
